Five compounds from US20230348917A1, “EXPRESSION VECTOR FOR USE IN METHANOTROPH” (priority 2020, published 2023) can be followed below.

Each structure is given as a SMILES string.

Data set [1] deals with M. capsulatus Bath. Kind of data set: Toxicity test of isoprene and epoxy isoprene (growth assay). The class given is cell-based, Methylococcus capsulatus Bath. The note with it: various concentrations of isoprene, or 1.35 and 13.5 mg/L epoxyisoprene; for growth of the strain expressing sMMO: absence of copper; for growth of the cells expressing pMMO: presence of copper. The protocol:
To analyze the toxicity of isoprene and epoxyisoprene using wild-type strains, 2 mL cultures were transferred to 150 mL serum bottle containing 19 ml NMS medium with or without 10 μM CuCl2. After incubation for 6.5 to 7.5 hours, an appropriate amount of isoprene or epoxy isoprene (2-methyl-2-vinyloxirane) diluted in dodecane was added. The bottle was sealed, 50% of the headspace was replaced with methane, and the bottle was further incubated. Sampling of 1 mL cultures for cell density measurement was performed at appropriate time intervals using a disposable syringe without reopening the bottle.
To examine the potential toxicity of isoprene produced in M. capsulatus Bath, growth assays were performed in the presence of various concentrations of isoprene while regulating the expression of sMMO and pMMO enzymes by controlling the addition of copper.
In addition, in order to examine whether the growth inhibition of the strain was due to the oxidation of isoprene by sMMO, the strain growth was analyzed in the presence of 1.35 and 13.5 mg/L of epoxyisoprene, an oxidation product of isoprene. As a result, it was confirmed that the growth of both the sMMO-expressing strain and the pMMO-expressing strain were reduced depending on the concentration of the epoxy isoprene treated above ((d) and (e) in FIG. 17).

Data set [2] has as its system dTomato expression in M. capsulatus Bath. Kind of data set: dTomato expression by fluorescence in transconjugated M. capsulatus Bath. The class given is cell-based, Methylococcus capsulatus Bath. The following applies: pAWP89S-Po-dTomato plasmid; 10 μM phenol. How it is done: (§1) The transconjugated M. capsulatus Bath and M. trichosporium OB3b were inoculated by 10% in NMS medium containing 25 μg/ml kanamycin and 10 μM CuCl2. For the methanotrophs transconjugated with the pAWP89S-Po-dTomato, 10 μM of phenol was contained in the medium. After sealing, 50% methane gas was substituted in the headspace. The recombinant M. capsulatus Bath was cultured at 37° C. for 24 hours or 44 to 48 hours, and therecombinant M. trichosporium OB3b was cultured at 30° C.

Data set [3] deals with M. capsulatus Bath. The following applies: pAWP89S-Po-dTomato strain; 100 μM phenol compared with 10 μM phenol. The protocol: as §1
Data set [4] has as its system dTomato expression in M. trichosporium OB3b. Kind of data set: dTomato expression by fluorescence (microplate reader, FACS) in transconjugated M. trichosporium OB3b. Type of data set: cell-based, Methylosinus trichosporium OB3b. The following applies: pAWP89S-Ptet-dTomato plasmid; aTc induction. The protocol:
For analysis of the expression level by fluorescence, 200 μl was sampled in a 96-well plate and a Tecan microplate reader (excitation: 535 nm, emission: 590 nm) was used. FACS analysis was performed using BD Biosciences FACSCalibur equipment (excitation: 488 nm, emission: 585 nm).
M. trichosporium OB3b transconjugated with the pAWP89S-Ptet-dTomato plasmid was treated with anhydrotetracycline (aTc) at 0 μM, 0.5 μM, 1 μM, or 2 μM, respectively, to induce expression, and the expression of the fluorescent protein dTomato was examined for 8 days. The experiment was performed by the method of Experimental Example 3 above.

Data set [5] deals with M. capsulatus Bath with the pAWP89S-Po-dTomato plasmid. The following applies: 0.5 mM benzene, 24 hours. The protocol:
It was confirmed whether dTomato could be induced with benzene under sMMO expression conditions (copper-deficient medium).
The M. capsulatus Bath with the pAWP89S-Po-dTomato plasmid were cultured under sMMO expression condition (copper-deficient medium) and pMMO expression condition (copper-containing medium) while supplying 0.5 mM benzene for 24 hours. A strain supplied with 10 μM of phenol was used as a control group.

Consider `C=CC1(C)CO1` (stereo not shown) [epoxyisoprene, 2-methyl-2-vinyloxirane], for which, in data set [1], the “growth of the strain expressing sMMO” value is on record as “reduced” and the “growth of the cells expressing pMMO” value is “reduced”.

Consider `C=CC(=C)C` [isoprene], for which, in data set [1], the “growth of the strain expressing sMMO” value was “reduced” and the “growth of the cells expressing pMMO” value is “unaffected”.

On to `Oc1ccccc1` [phenol], for which, in data set [2], the “time after phenol supply at which fluorescence due to dTomato expression was observed” value was 5 h. The strain growth result in data set [3] is “inhibited”.

For `Cc1c2c(c(O)c3c(O)cccc13)C(=O)[C@]1(O)C(=O)C(C(N)=O)=C(O)[C@@H](N(C)C)[C@@H]1C2` [aTc, anhydrotetracycline], in data set [4], the “FACS distribution of dTomato fluorescence of individual cells” value was “two peaks were formed” and the “time required for expression to be most active” value is reported as “about 8 days”.

For `c1ccccc1` [benzene], the “dTomato expression (fluorescence value)” value in data set [5] (pMMO expression condition (copper-containing medium)) is listed as “relatively small fluorescence value”. For the same compound, in data set [5] (sMMO expression condition (copper-deficient medium)), the dTomato expression entry was “highly induced”.
